# According to EP0933350A1, “Tricyclic retinoids, methods for their production and use” (LIGAND PHARMACEUTICALS INCORPORATED, priority 1994, dated 1996):
# Key:
# [1] = biological target: T1, RXRα (Homo sapiens, UniProt P19793); assay: co-transfection assay (RAR/RXR agonist activity, luciferase reporter in CV-1 cells); type: cell-based; details: read-out: RXRα Pot
# T1 sequence (P19793 1-462): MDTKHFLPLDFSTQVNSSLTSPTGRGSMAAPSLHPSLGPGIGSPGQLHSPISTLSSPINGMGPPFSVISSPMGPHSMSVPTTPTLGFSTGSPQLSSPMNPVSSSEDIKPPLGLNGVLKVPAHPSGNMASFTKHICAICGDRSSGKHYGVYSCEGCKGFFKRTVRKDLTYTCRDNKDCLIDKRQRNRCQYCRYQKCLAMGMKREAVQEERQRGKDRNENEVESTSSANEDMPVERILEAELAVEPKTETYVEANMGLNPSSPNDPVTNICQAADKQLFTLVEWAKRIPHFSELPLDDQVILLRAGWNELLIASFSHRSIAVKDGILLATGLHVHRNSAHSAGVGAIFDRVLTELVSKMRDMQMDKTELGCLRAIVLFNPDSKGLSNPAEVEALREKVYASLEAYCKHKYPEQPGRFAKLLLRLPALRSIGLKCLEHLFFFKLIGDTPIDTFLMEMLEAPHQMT
# [2] = biological target: T2, RXRβ (Mus musculus, UniProt P28704); assay: as above; type: cell-based; details: read-out: RXRβ Pot
# T2 sequence (P28704 1-520): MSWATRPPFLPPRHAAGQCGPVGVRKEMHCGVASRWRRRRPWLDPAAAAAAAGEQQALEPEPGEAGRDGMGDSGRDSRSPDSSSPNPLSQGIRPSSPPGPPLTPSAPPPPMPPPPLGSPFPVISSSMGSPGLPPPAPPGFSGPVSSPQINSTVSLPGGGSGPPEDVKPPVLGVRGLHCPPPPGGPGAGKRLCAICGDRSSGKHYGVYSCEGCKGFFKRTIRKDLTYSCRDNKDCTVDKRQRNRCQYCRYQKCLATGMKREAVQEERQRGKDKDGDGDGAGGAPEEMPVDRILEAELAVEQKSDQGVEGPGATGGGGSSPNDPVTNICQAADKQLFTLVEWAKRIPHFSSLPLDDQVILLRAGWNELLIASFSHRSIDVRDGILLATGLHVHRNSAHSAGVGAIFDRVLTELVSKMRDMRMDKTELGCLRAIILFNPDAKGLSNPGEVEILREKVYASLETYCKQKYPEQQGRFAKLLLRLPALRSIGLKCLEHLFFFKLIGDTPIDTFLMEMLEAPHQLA
# [3] = biological target: T3, RARβ (Homo sapiens, UniProt P10826); assay: competitive binding of tritiated retinoids to retinoid receptors; details: competition with tritiated retinoid, Cheng-Prussof equation
# T3 sequence (P10826 1-455): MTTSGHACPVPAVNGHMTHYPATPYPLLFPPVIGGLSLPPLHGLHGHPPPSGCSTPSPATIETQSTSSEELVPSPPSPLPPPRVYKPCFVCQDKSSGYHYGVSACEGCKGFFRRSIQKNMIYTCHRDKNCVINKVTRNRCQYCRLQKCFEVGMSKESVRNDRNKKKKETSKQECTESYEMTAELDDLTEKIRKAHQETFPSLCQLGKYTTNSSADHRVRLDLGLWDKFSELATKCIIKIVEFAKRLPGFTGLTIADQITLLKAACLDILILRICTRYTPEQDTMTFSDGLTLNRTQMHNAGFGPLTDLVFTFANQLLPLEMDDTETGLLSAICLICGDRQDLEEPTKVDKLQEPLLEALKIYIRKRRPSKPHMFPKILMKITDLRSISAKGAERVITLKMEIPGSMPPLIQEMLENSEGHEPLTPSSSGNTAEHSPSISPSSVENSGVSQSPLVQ
# [4] = biological target: T4, RARγ (Homo sapiens, UniProt P13631); assay: as above; details: competition with tritiated retinoid, Cheng-Prussof equation
# T4 sequence (P13631 1-454): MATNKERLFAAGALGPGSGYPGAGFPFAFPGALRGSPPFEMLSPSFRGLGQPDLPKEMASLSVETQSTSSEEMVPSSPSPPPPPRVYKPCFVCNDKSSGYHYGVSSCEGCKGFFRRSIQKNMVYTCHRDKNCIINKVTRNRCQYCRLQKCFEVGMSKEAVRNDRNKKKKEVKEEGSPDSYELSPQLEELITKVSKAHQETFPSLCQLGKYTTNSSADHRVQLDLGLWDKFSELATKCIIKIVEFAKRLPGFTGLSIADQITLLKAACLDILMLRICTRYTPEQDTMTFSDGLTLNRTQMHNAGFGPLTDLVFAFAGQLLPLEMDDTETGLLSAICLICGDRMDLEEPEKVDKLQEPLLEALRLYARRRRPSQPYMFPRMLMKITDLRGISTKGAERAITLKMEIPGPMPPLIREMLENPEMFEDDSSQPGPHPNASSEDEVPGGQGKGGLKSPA
# [5] = biological target: T1, RXRα; assay: as above; details: competition with tritiated retinoid, Cheng-Prussof equation
# [6] = biological target: T5, RXRγ (Mus musculus, UniProt P28705); assay: as above; details: competition with tritiated retinoid, Cheng-Prussof equation
# T5 sequence (P28705 1-463): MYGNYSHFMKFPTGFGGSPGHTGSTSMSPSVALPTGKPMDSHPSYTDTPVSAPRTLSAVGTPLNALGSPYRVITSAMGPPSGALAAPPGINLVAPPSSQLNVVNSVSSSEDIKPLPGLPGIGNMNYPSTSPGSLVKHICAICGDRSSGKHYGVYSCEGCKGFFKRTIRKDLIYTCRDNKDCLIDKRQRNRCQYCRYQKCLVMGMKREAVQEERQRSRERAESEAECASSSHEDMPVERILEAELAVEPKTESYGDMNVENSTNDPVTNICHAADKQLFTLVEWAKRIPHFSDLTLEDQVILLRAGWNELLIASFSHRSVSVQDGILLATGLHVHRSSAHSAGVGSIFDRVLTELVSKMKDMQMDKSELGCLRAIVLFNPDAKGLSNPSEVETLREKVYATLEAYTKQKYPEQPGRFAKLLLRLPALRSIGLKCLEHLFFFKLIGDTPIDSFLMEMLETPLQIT
# [7] = tested on: RPMI 8226 cell line; assay: incorporation of 3H-thymidine (antiproliferative); type: cell-based; details: Homo sapiens, 96 hours, radiolabeled thymidine incorporation, read-out: TdR IC50
# [8] = tested on: RPMI 8226 cell line; assay: viability (tetrazolium dye, mitochondrial function); type: cell-based; details: Homo sapiens, 96 hours, read-out: MTS IC50
# [9] = tested on: ME 180 cell line; assay: incorporation of 3H-thymidine (antiproliferative); type: cell-based; details: Homo sapiens, 96 hours, radiolabeled thymidine incorporation, read-out: TdR IC50
# [10] = tested on: AML-193 cell line; assay: viability (tetrazolium dye, mitochondrial function); type: cell-based; details: Homo sapiens, 96 hours, read-out: MTS IC50
# [11] = tested on: AML-193 cell line; assay: incorporation of 3H-thymidine (antiproliferative); details: Homo sapiens, 96 h, read-out: TdR IC50 (nM)
Compound,EC50 [1],EC50 [2],Kd [3],Kd [4],Kd [5],Kd [6],IC50 [7],IC50 [8],IC50 [9],IC50 [10],IC50 [11]
"CC(/C=C/C=C1/CCCc2cc3c(cc21)C(C)(C)CCC3(C)C)=C\C(=O)O [Compound 101b, (2E,4E)-3-Methyl-6-[(Z)-3,4,5,6,7,8-hexahydro-5,5,8,8-tetramethyl-2H-anthracen-1-ylidene]hexa-2,4-dienoic acid]",35 nM,55 nM,299 nM,541 nM,34 nM,48 nM,6 nM,100 nM,8 nM,1000 nM,37 nM
"CC(/C=C/C=C1\CCCc2cc3c(cc21)C(C)(C)CCC3(C)C)=C\C(=O)O [Compound 109b, (2E,4E)-3-Methyl-6-[(E)-3,4,5,6,7,8-hexahydro-5,5,8,8-tetramethyl-2H-anthracen-1-ylidene]hexa-2,4-dienoic acid]",2020 nM,64 nM,68 nM,279 nM,340 nM,382 nM,0.05 nM,10 nM,5 nM,1000 nM,500 nM
"CC(/C=C/C=C1\CCOc2cc3c(cc21)C(C)(C)CCC3(C)C)=C\C(=O)O [Compound 119b, (2E,4E)-3-Methyl-6-[(E)-2,3,6,7,8,9-hexahydro-6,6,9,9-tetramethylbenzo[g]chromen-4-ylidene]hexa-2,4-dienoic acid]",1660 nM,1140 nM,50 nM,87 nM,246 nM,398 nM,0.5 nM,2.6 nM,0.6 nM,1000 nM,0.6 nM
"CC(/C=C/CN1CCCCc2cc3c(cc21)C(C)(C)CCC3(C)C)=C\C(=O)O [Compound 138b, (2E,4E)-3-Methyl-6-[7,7,10,10-tetramethyl-2,3,4,5,7,8,9,10-octahydronaphtho[2,3-6]azepinyl)hexa-2,4-dienoic acid]",422 nM,204 nM,> 1000 nM,> 1000 nM,136 nM,508 nM,–,–,–,–,–
CC(/C=C/C=C1/CCOc2cc3c(cc21)C(C)(C)CCC3(C)C)=C\C(=O)O [Compound 144b],36 nM,45 nM,313 nM,494 nM,59 nM,85 nM,0.6 nM,7.5 nM,4 nM,1000 nM,0.6 nM
